These cell lines were tested with C1CSC2=C(C(=O)N1)SC3=C2C=C(C=C3)O [kb NB 142-70] + CS(=O)(=O)CCNCc1ccc(-c2ccc3ncnc(Nc4ccc(OCc5cccc(F)c5)c(Cl)c4)c3c2)o1 [Lapatinib] (partner 2 µM) (assay: relative viability (nuclei count vs DMSO), 5 days (fraction); higher = more cells survive). Conditions: first compound 1 µM.
Outline: (§1)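 Medians of duplicate plates are given as relative viability. That measure is the nuclei count in treated wells divided by the count in vehicle wells. Counts were taken on 4× images of lung cancer cell lines in 1536-well plates, 5 days after pin-tool dosing the day after seeding with one drug alone or a fixed anchor-drug dose plus five library-drug doses (not always all listed) in √10 steps.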

Going from SK-LU-1 to 201T, the relative viability rises from 0.802 to 1.06.

Compared with NCI-H1915, HCC-827 is lower in relative viability: 1 for the first, 0.192 for the second.

Going from LXF-289 to NCI-H23, the relative viability falls from 0.909 to 0.872.

First: NCI-H647
Second: CAL-12T
The relative viability of the first is higher: 1.08 for the first, 0.673 for the second.

Compared with NCI-H1651, EPLC-272H is higher in relative viability: 0.789 for the first, 0.817 for the second.

First: NCI-H2228
Second: NCI-H1792
The relative viability of the first is higher: 1.02 for the first, 0.85 for the second.

Compared with NCI-H1355, NCI-H3122 is higher in relative viability: 0.943 for the first, 1.01 for the second.

Compared with NCI-H1437, NCI-H1755 is higher in relative viability: 0.78 for the first, 1.04 for the second.

First: NCI-H2023
Second: HCC-15
The relative viability of the first is lower: 0.758 for the first, 0.932 for the second.

Compared with PC-14, EKVX is lower in relative viability: 0.304 for the first, 0.216 for the second.

Compared with LC-2-ad, NCI-H1944 is lower in relative viability: 0.885 for the first, 0.827 for the second.

Going from NCI-H1975 to RERF-LC-KJ, the relative viability falls from 0.881 to 0.88.

Compared with ABC-1, NCI-H358 is lower in relative viability: 1.22 for the first, 0.396 for the second.

Going from NCI-H650 to PC-3 [JPC-3], the relative viability falls from 1.17 to 0.481.

Same assay, conditions: first compound 3.162 µM

First: NCI-H322M
Second: LCLC-97TM1
The relative viability of the first is lower: 0.617 for the first, 1.08 for the second.

Compared with NCI-H2009, A-427 is higher in relative viability: 0.678 for the first, 1.04 for the second.

Compared with NCI-H661, NCI-H1734 is higher in relative viability: 0.492 for the first, 0.523 for the second.

First: NCI-H460
Second: NCI-H2347
The relative viability of the first is lower: 0.48 for the first, 0.936 for the second.

Going from SK-LU-1 to 201T, the relative viability rises from 0.527 to 1.06.

Going from NCI-H1915 to HCC-827, the relative viability falls from 0.845 to 0.173.

Compared with LXF-289, NCI-H23 is lower in relative viability: 0.94 for the first, 0.413 for the second.

Compared with NCI-H647, CAL-12T is lower in relative viability: 0.836 for the first, 0.496 for the second.

First: NCI-H1651
Second: EPLC-272H
The relative viability of the first is lower: 0.471 for the first, 0.649 for the second.

First: NCI-H2228
Second: NCI-H1792
The relative viability of the first is lower: 0.323 for the first, 1.03 for the second.

First: NCI-H1355
Second: NCI-H3122
The relative viability of the first is higher: 1.07 for the first, 0.947 for the second.

First: NCI-H1437
Second: NCI-H1755
The relative viability of the first is lower: 0.85 for the first, 1.02 for the second.

Compared with NCI-H2023, HCC-15 is higher in relative viability: 0.486 for the first, 0.743 for the second.

First: PC-14
Second: EKVX
The relative viability of the first is higher: 0.341 for the first, 0.235 for the second.

First: LC-2-ad
Second: NCI-H1944
The relative viability of the first is higher: 0.937 for the first, 0.936 for the second.

Going from NCI-H1975 to RERF-LC-KJ, the relative viability rises from 0.433 to 0.942.

Going from ABC-1 to NCI-H358, the relative viability falls from 1.07 to 0.161.

Compared with NCI-H650, PC-3 [JPC-3] is lower in relative viability: 0.657 for the first, 0.433 for the second.

The cell lines below were run with C1CSC2=C(C(=O)N1)SC3=C2C=C(C=C3)O [kb NB 142-70] + C[C@@H](Oc1cc(-c2cnn(C3CCNCC3)c2)cnc1N)c1c(Cl)ccc(F)c1Cl [Crizotinib] (partner 1 µM) in the same assay as above. Conditions: first compound 0.1 µM.
Outline: as §1

First: NCI-H322M
Second: LCLC-97TM1
The relative viability of the first is higher: 1 for the first, 0.382 for the second.

Going from NCI-H2009 to A-427, the relative viability falls from 1 to 0.937.

Going from NCI-H661 to NCI-H1734, the relative viability falls from 1.05 to 0.68.

First: NCI-H460
Second: NCI-H2347
The relative viability of the first is higher: 0.766 for the first, 0.685 for the second.

First: SK-LU-1
Second: 201T
The relative viability of the first is lower: 0.861 for the first, 0.989 for the second.

First: NCI-H1915
Second: HCC-827
The relative viability of the first is lower: 0.887 for the first, 0.918 for the second.

Going from LXF-289 to NCI-H23, the relative viability falls from 0.776 to 0.502.

Compared with NCI-H647, CAL-12T is lower in relative viability: 1.08 for the first, 0.605 for the second.

Compared with NCI-H1651, EPLC-272H is lower in relative viability: 0.908 for the first, 0.851 for the second.

First: NCI-H2228
Second: NCI-H1792
The relative viability of the first is lower: 0.519 for the first, 0.995 for the second.

Going from NCI-H1355 to NCI-H3122, the relative viability falls from 1.02 to 0.268.

First: NCI-H1437
Second: NCI-H1755
The relative viability of the first is higher: 1.01 for the first, 0.852 for the second.

Going from NCI-H2023 to HCC-15, the relative viability rises from 0.699 to 0.773.

Going from PC-14 to EKVX, the relative viability falls from 0.933 to 0.884.

Going from LC-2-ad to NCI-H1944, the relative viability rises from 0.446 to 1.02.

Going from NCI-H1975 to RERF-LC-KJ, the relative viability falls from 0.899 to 0.819.

Going from ABC-1 to NCI-H358, the relative viability falls from 1.02 to 0.481.

Going from NCI-H650 to PC-3 [JPC-3], the relative viability rises from 0.715 to 0.985.

Same assay, conditions: first compound 1 µM

First: NCI-H322M
Second: LCLC-97TM1
The relative viability of the first is higher: 1.1 for the first, 0.331 for the second.

Compared with NCI-H2009, A-427 is lower in relative viability: 1.12 for the first, 1.01 for the second.

Compared with NCI-H661, NCI-H1734 is lower in relative viability: 0.969 for the first, 0.652 for the second.

Compared with NCI-H460, NCI-H2347 is lower in relative viability: 0.801 for the first, 0.707 for the second.

Compared with SK-LU-1, 201T is higher in relative viability: 0.691 for the first, 1.07 for the second.

Going from NCI-H1915 to HCC-827, the relative viability rises from 0.915 to 0.947.

Going from LXF-289 to NCI-H23, the relative viability falls from 0.796 to 0.522.

Compared with NCI-H647, CAL-12T is lower in relative viability: 1.27 for the first, 0.802 for the second.

Compared with NCI-H1651, EPLC-272H is higher in relative viability: 0.842 for the first, 1.03 for the second.

First: NCI-H2228
Second: NCI-H1792
The relative viability of the first is lower: 0.561 for the first, 1.01 for the second.

Compared with NCI-H1355, NCI-H3122 is lower in relative viability: 1.03 for the first, 0.242 for the second.

Compared with NCI-H1437, NCI-H1755 is lower in relative viability: 0.997 for the first, 0.923 for the second.

Going from NCI-H2023 to HCC-15, the relative viability rises from 0.761 to 0.85.

First: PC-14
Second: EKVX
The relative viability of the first is lower: 0.909 for the first, 1.04 for the second.

Compared with LC-2-ad, NCI-H1944 is higher in relative viability: 0.429 for the first, 1.31 for the second.

Going from NCI-H1975 to RERF-LC-KJ, the relative viability falls from 0.959 to 0.93.

Compared with ABC-1, NCI-H358 is lower in relative viability: 1.31 for the first, 0.493 for the second.

Compared with NCI-H650, PC-3 [JPC-3] is higher in relative viability: 0.683 for the first, 1.05 for the second.

Same assay, conditions: first compound 3.162 µM

First: NCI-H322M
Second: LCLC-97TM1
The relative viability of the first is higher: 1 for the first, 0.201 for the second.

Compared with NCI-H2009, A-427 is higher in relative viability: 0.652 for the first, 0.908 for the second.

First: NCI-H661
Second: NCI-H1734
The relative viability of the first is higher: 1.22 for the first, 0.383 for the second.

Going from NCI-H460 to NCI-H2347, the relative viability rises from 0.326 to 0.594.

Going from SK-LU-1 to 201T, the relative viability rises from 0.45 to 1.03.

First: NCI-H1915
Second: HCC-827
The relative viability of the first is lower: 0.481 for the first, 0.921 for the second.

First: LXF-289
Second: NCI-H23
The relative viability of the first is higher: 0.744 for the first, 0.253 for the second.

First: NCI-H647
Second: CAL-12T
The relative viability of the first is higher: 1.12 for the first, 0.611 for the second.
